According to patent publication US20020052353A1, “Methods of prevention and treatment of ischemic damage” (priority 1999, published 2002):

Legend:
[1] = system: ischemia induced by middle cerebral artery occlusion (MCAO); test: Pretreatment with estrogen compounds before middle cerebral artery occlusion (MCAO) in ovariectomized rats: mortality and ischemic area; format: in vivo, rat; conditions: for reduction of ischemic area: 5 mm Silastic tube 24 h prior to MCAO
[2] = system: ischemia induced by middle cerebral artery occlusion (MCAO); test: Post-treatment at 0.5, 1, 2, 3 and 4 hours after MCAO: ischemic lesion volume by TTC staining; format: in vivo, rat; conditions: iv 100 μg/kg HPCD-complexed 17β-estradiol plus Silastic pellet at 0.5, 1, 2 or 3 hours post-occlusion; 48 hours after MCAO
[3] = system: Primary rat brain capillary endothelial cells (BCEC); test: BCEC mortality under combined anoxia and hypoglycemia, Trypan blue; conditions: 2 nM; 100 mg % glucose; anoxia 2 hours
Experimental: Cell media contained 200 mg % or 100 mg % glucose. Culture dishes containing BCEC were placed in either an incubator or a nitrogen filled chamber for two hours. Trypan blue staining was used to distinguish live cells from dead cells. Two cell countings at two different hemacytometer squares were averaged. Mean ±SEM are depicted (n=8.12). *<0.05 vs. corresponding vehicle control.
(§1) Primary rat brain capillary endothelial cells (BCEC) cultures were prepared following the method of Goldstein, J. Neurochemistry vol.
Nitrogen gas was influxed to replace the oxygen inside the chamber. The chamber was sealed and placed in the incubator for four hours for nonhypoglycemic cultures and 2 hours for hypoglycemic cultures.
(§2) Cell mortality was counted using Trypan blue staining method. Cell death percentage was calculated as dead cell/alive cell ×100%.
(§3) Statistical treatment included two-way analysis of variance applied to determine the significance of the difference among the experimental groups. Kruskal-Wallis nonparametric analysis was used for data presented as percentage. […] P<0.05 was considered significant.

[4] = system: Primary rat brain capillary endothelial cells (BCEC); test: Brain capillary endothelial cell (BCEC) mortality under hypoglycemia, Trypan blue; conditions: 2 nM
Experimental: The control consists of the ethanol vehicle only. The glucose concentrations in the cell media were adjusted from 20 mg % to 200 mg % by adding appropriate amount of D-(+)-glucose to the glucose-free media. BCEC were incubated for 24 hours (a) and 48 hours (b). Trypan blue staining was used to distinguish live cells from dead cells. Two cell countings at two different hemacytometer squares were averaged. Mean±SEM are depicted (n=8-12). *p<0.05 vs. corresponding vehicle control.
as §1
Hypoglycemia experiments were undertaken. […] The glucose concentration of the culture media was then adjusted from 20 mg % to 200 mg % by adding appropriate amount of D-(+)-glucose to the glucose-free media and monitored by Glucose and L-Lactate Analyzer (YSI model 2300 STAT plus, YSI, Inc., Yellow Springs, Ohio). The hypoglycemic cultures were maintained for 24 hours or 48 hours prior to staining with Trypan blue.
as §2, §3

Compound	reduction of ischemic area ([1]; slice C) [%]	reduction of ischemic area ([1]; slice D) [%]	reduction of ischemic area ([1]; slice E) [%]	protective effect in tissue slices (FIG. 3) ([1]; sustained subcutaneous delivery initiated 24 hours prior to ischemic event, slices A-E)	ischemic area, percent of cross-sectional area of brain sections ([1]; pretreatment 24 h prior to MCAO, 3 brain slices, sham 25.6±5.7%) [%]	protective effect in tissue slices (FIG. 2) ([1]; sc injection two hours prior to ischemic event, slices A-D)	protection, ischemic lesion volume (TTC staining) [2]	protection from cumulative effect of hypoglycemia and anoxia [3]	cell loss saved compared with control ([4]; media glucose 20 mg %) [%]	cell loss saved compared with control ([4]; media glucose 40 mg %) [%]	cell loss saved compared with control ([4]; media glucose 100 mg %) [%]
C[C@]12CC[C@@H]3c4ccc(O)cc4CC[C@H]3[C@@H]1CC[C@H]2O [17α-estradiol]	55	66	81	significant protective effect	–	–	–	–	–	–	–
C[C@]12CC[C@@H]3c4ccc(O)cc4CC[C@H]3[C@@H]1CC[C@@H]2O [17β-estradiol]	–	–	–	–	9.8±4.0	significant protective effect	significant protection	effective in protecting	23	28.4	35.9
